pIC50: −log10 of the molar value.

The target of this test is T1, human IDO1 (Homo sapiens, UniProt P14902).
T1 construct: expressed in transfected cells
T1 sequence (P14902 whole entry): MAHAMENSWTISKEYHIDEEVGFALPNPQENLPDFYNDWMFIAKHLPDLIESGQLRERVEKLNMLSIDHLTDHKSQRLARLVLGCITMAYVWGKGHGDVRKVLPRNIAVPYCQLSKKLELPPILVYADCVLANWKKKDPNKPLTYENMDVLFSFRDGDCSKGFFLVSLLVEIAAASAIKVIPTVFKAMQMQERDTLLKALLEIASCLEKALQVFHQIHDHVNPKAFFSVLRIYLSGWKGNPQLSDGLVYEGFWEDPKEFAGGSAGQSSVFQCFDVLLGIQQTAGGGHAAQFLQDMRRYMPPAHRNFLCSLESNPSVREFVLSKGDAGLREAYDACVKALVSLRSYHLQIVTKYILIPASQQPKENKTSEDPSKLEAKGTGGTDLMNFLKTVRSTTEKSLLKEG
Kind of test: HEK Human IDO-1 inhibition assay (kynurenine readout, Ehrlich reagent, absorbance 490 nm). The test is classed as cell-based. Particulars: human IDO1/HEK293 cells, incubated 20 hours with compound; 500 nM reference standard = 100% inhibition. How it is done: HEK293 cells were transfected with a pCDNA-based mammalian expression vector harboring human IDO1 cDNA (NM 002164.2) by electroporation. They were cultured in medium (DMEM with 10% FBS) containing 1 mg/ml G418 for two weeks. Clones of HEK293 cells that stably expressed human IDO1 protein were selected and expanded for IDO inhibition assay.
The human IDO1/HEK293 cells were seeded at 10,000 cells per 50 uL per well with RPMI/phenol red free media contains 10% FBS in a 384-well black wall clear bottom tissue culture plate (Matrix Technologies LLC) 100 nL of certain concentration of compound was then added to each well using ECHO liquid handling systems. The cells were incubated for 20 hours in 37° C. incubator with 5% CO2.
The compound treatments were stopped by adding Trichloroacetic Acid (Sigma-Aldrich) to a final concentration at 0.2%. The cell plate was further incubated at 50° C. for 30 minute. The equal volume supernatant (20 uL) and 0.2% (w/v) Ehrlich reagent (4-dimethylaminobenzaldehyde, Sigma-Aldrich) in glacial acetic acid were mixed in a new clear bottom 384-well plate. This plate was then incubated at room temperature for 30 minute. The absorbance at 490 nm was measured on Envision plate reader. Compound IC50 values were calculated using the counts of 500 nM of a reference standard treatment as one hundred percent inhibition, and counts of no compound but DMSO treatment as zero percent inhibition.
The term pIC50 denotes the IC50 on a negative log10 scale, so that one unit is a factor of ten. `CC(C)CN(c1ccc(OC(C)C(=O)O)cc1Nc1nc2ccccc2o1)C1CCCCC1` (racemic) [Example 62, (±)-2-(3-(benzo[d]oxazol-2-ylamino)-4-(cyclohexyl (isobutyl)amino)phenoxy)propanoic acid]: the pIC50 was at most 7.00.

For the compound `COc1cnc(Nc2cc(OC(C)C(=O)O)ccc2N(CC(C)C)C2CCCCC2)nc1` (racemic) [Example 63, (±)-2-(4-(cyclohexyl(isobutyl)amino)-3-((5-methoxypyrimidin-2-yl)amino)phenoxy)propanoic acid], the pIC50 was at most 7.00.

In the case of `Cc1cc(NC(=O)Nc2cc(OC(C)C(=O)NS(=O)(=O)C3CC3)ccc2N(CC(C)C)C2CCCCC2)on1` (racemic) [Example 68], the pIC50 is above 8.30.

`Cc1ccc(NC(=O)Nc2cc(OC(C)C(=O)NS(=O)(=O)C3CC3)ccc2N(CC(C)C)C2CCCCC2)cc1` (racemic) [Example 69, (±)-2-(4-(cyclohexyl(isobutyl)amino)-3-(3-(p-tolyl)ureido)phenoxy)-N-(cyclopropylsulfonyl)propanamide]: the pIC50 was above 8.30.

As for `CC(C)CN(c1ccc(OC(C)C(=O)NS(=O)(=O)C2CC2)cc1NC(=O)Nc1ccc(Cl)cc1F)C1CCCCC1` (racemic) [Example 70, (±)-2-(3-(3-(4-chloro-2-fluorophenyl)ureido)-4-(cyclohexyl(isobutyl)amino)phenoxy)-N-(cyclopropylsulfonyl) propanamide], the pIC50 is above 8.30.

Take `CC(C)CN(c1ccc(OC(C)C(=O)O)cc1NC(=O)Cc1ccc(F)cc1F)C1CCCCC1` (racemic) [Example 71, 2-(4-(cyclohexyl(isobutyl)amino)-3-(2-(2,4-difluorophenyl)acet-amido)phenoxy)propanoic acid]: the pIC50 was above 7.00.

As for `CC(C)CN(c1ccc(OC(C)C(=O)O)cc1NC(=O)Cc1ccc(Cl)c(F)c1)C1CCCCC1` (racemic) [Example 72, 2-(3-(2-(4-chloro-3-fluorophenyl)acetamido)-4-(cyclohexyl (isobutyl)amino)phenoxy)prop-anoic acid], the pIC50 was above 7.00.

With `CC(C)CN(c1ccc(OC(C)C(=O)O)cc1NC(=O)Cc1ccc(Cl)cc1F)C1CCCCC1` (racemic) [Example 73], the pIC50 is above 7.00.

As for `CC(C)CN(c1ccc(OC(C)C(=O)O)cc1NC(=O)Cc1ccc(F)cc1)C1CCCCC1` (racemic) [Example 74, 2-(4-(cyclohexyl(isobutyl)amino)-3-(2-(4-fluorophenyl)acet-amido)phenoxy)propanoic acid], the pIC50 was at most 7.00.

On to `Cc1ccc(CC(=O)Nc2cc(OC(C)C(=O)O)ccc2N(CC(C)C)C2CCCCC2)cc1` (racemic) [Example 75, 2-(4-(cyclohexyl(isobutyl)amino)-3-(2-(p-tolyl)acetamido)phenoxy)propanoic acid], for which the pIC50 was above 7.00.

For `Cc1ccc(CC(=O)Nc2cc(OC(C)C(=O)O)ccc2N(CC(C)C)C2CCCCC2)c(F)c1` (racemic) [Example 76, 2-(4-(cyclohexyl(isobutyl)amino)-3-(2-(2-fluoro-4-methylphenyl)acetamido)phenoxy)propanoic acid], the pIC50 was above 7.00.

Regarding `CC(C)CN(c1ccc(OC(C)C(=O)NS(=O)(=O)C2CC2)cc1NC(=O)Cc1ccc(Cl)cc1F)C1CCCCC1` (racemic) [Example 77, (±)-2-(3-(2-(4-chloro-2-fluorophenyl)acetamido)-4-(cyclohexyl(isobutyl)amino)phenoxy)-N-(cyclopropylsulfonyl) propanamide], the pIC50 is above 7.00.

Regarding `Cc1ccc(CC(=O)Nc2cc(OC(C)C(=O)NS(=O)(=O)C3CC3)ccc2N(CC(C)C)C2CCCCC2)cc1` (racemic) [Example 78, (±)-2-(4-(cyclohexyl(isobutyl)amino)-3-(2-(p-tolyl)acetamido)phenoxy)-N-(cyclopropylsulfonyl)propanamide], the pIC50 is above 7.00.

`CC(C)CN(c1ccc(OC(C)C(=O)NS(=O)(=O)C2CC2)cc1NC(=O)Cc1ccc(Cl)c(F)c1)C1CCCCC1` (racemic) [Example 79, (±)-2-(3-(2-(4-chloro-3-fluorophenyl)acetamido)-4-(cyclohexyl(isobutyl)amino)phenoxy)-N-(cyclopropylsulfonyl) propanamide]: the pIC50 was at most 7.00.

For `CC(C)CN(c1ccc(OC(C(=O)O)C(C)C)cc1NC(=O)Nc1ccc(Cl)cc1F)C1CCCCC1` (racemic) [Example 83], the pIC50 was above 8.30.

With `Cc1ccc(NC(=O)Nc2cc(OC(C(=O)O)C(C)C)ccc2N(CC(C)C)C2CCCCC2)cc1` (racemic) [Example 84, (±)-2-(4-(cyclohexyl(isobutyl)amino)-3-(3-(p-tolyl)ureido)phenoxy)-3-methylbutanoic acid], the pIC50 is above 7.00.

`C=C(C)CN(c1ccc(OC(C)C(=O)O)cc1NC(=O)Nc1ccc(C)cc1)C1CCOCC1` (racemic) [Example 140, (+/−)-2-(4-((2-methylallyl)(tetrahydro-2H-pyran-4-yl)amino)-3-(3-(p-tolyl)ureido)phenoxy)propanoic acid]: the pIC50 was at most 7.00.

On to `COc1ccc(NC(=O)Nc2cc(OC(C)C(=O)O)ccc2N(CC(C)C)C2CCCCC2)c(F)c1` (racemic) [racemic 64], for which the pIC50 was above 8.30.

With `Cc1ccc(NC(=O)Nc2cc(OC(C)C(=O)O)ccc2N(CC(C)C)C2CCCCC2)c(F)c1` (racemic) [racemic 65], the pIC50 is above 8.30.

In the case of `CC(C)CN(c1ccc(OC(C)C(=O)O)cc1NC(=O)Nc1ccc(C#N)cc1)C1CCCCC1` (racemic) [racemic 66], the pIC50 is at most 7.00.

In the case of `CCOC(=O)C(C)Oc1ccc(N(CC(C)C)C2CCCCC2)c(NC(=O)Nc2ccc(Cl)cc2F)c1` (racemic) [racemic 67], the pIC50 was above 8.30.

Regarding `CC(C)CN(c1cc(F)c(OC(C)C(=O)O)cc1NC(=O)Nc1ccc(Cl)cc1F)C1CCCCC1` (racemic) [racemic 136], the pIC50 was above 8.30.

Turning to `CC(C)CN(c1ccc(OC(C)C(=O)O)cc1NC(=O)Nc1cncnc1)C1CCCCC1` (single isomer, unassigned) [Example 58-1, 2-(4-(cyclohexyl(isobutyl)amino)-3-(3-(pyrimidin-5-yl)ureido)phenoxy)propanoic acid], the pIC50 is at most 7.00.

In the case of `CC(C)CN(c1ccc(OC(C)C(=O)O)cc1NC(=O)Nc1cncnc1)C1CCCCC1` (single isomer, unassigned) [Example 58-2, 2-(4-(cyclohexyl(isobutyl)amino)-3-(3-(pyrimidin-5-yl)ureido)phenoxy)propanoic acid], the pIC50 is above 7.00.

Consider `CC(C)CN(c1ccc(OC(C)C(=O)O)cc1NC(=O)Nc1ccccc1F)C1CCCCC1` (single isomer, unassigned) [Example 59-1, 2-(4-(cyclohexyl(isobutyl)amino)-3-(3-(2-fluoro-phenyl)ureido)phenoxy)propanoic acid], for which the pIC50 was above 8.30.

For the compound `Cc1ccc(NC(=O)Nc2cc(OC(C)C(=O)O)ccc2N(CC(C)C)C2CCCCC2)cc1` (single isomer, unassigned) [Example 60-1, 2-(4-(cyclohexyl(isobutyl)amino)-3-(3-(p-tolyl)ureido)phenoxy)propanoic acid], the pIC50 is above 8.30.

`CC(C)CN(c1ccc(OC(C)C(=O)O)cc1NC(=O)Nc1ccc(Cl)cc1F)C1CCCCC1` (single isomer, unassigned) [Example 61-1, 2-(3-(3-(4-chloro-2-fluorophenyl)ureido)-4-(cyclo-hexyl(isobutyl)amino)phenoxy)propanoic acid]: the pIC50 is above 8.30.

Turning to `CC(C)CN(c1ccc(OC(C)C(=O)O)cc1NC(=O)Nc1ccc(Cl)cc1F)C1CCCCC1` (single isomer, unassigned) [Example 61-2, 2-(3-(3-(4-chloro-2-fluorophenyl)ureido)-4-(cyclo-hexyl(isobutyl)amino)phenoxy)propanoic acid], the pIC50 was above 8.30.

Take `COc1ccc(NC(=O)Nc2cc(OC(C)C(=O)O)ccc2N(CC(C)C)C2CCCCC2)c(F)c1` (single isomer, unassigned) [Example 64-1, 2-(4-(cyclohexyl(isobutyl)amino)-3-(3-(2-fluoro-4-methoxyphenyl)ureido)phenoxy)propanoic acid]: the pIC50 is above 7.00.

Regarding `COc1ccc(NC(=O)Nc2cc(OC(C)C(=O)O)ccc2N(CC(C)C)C2CCCCC2)c(F)c1` (single isomer, unassigned) [Example 64-2, 2-(4-(cyclohexyl(isobutyl)amino)-3-(3-(2-fluoro-4-methoxyphenyl)ureido)phenoxy)propanoic acid], the pIC50 is above 8.30.

For the compound `Cc1ccc(NC(=O)Nc2cc(OC(C)C(=O)O)ccc2N(CC(C)C)C2CCCCC2)c(F)c1` (single isomer, unassigned) [Example 65-1, 2-(4-(cyclohexyl(isobutyl)amino)-3-(3-(2-fluoro-4-methylphenyl)ureido)phenoxy)propanoic acid], the pIC50 was above 7.00.

Turning to `Cc1ccc(NC(=O)Nc2cc(OC(C)C(=O)O)ccc2N(CC(C)C)C2CCCCC2)c(F)c1` (single isomer, unassigned) [Example 65-2, 2-(4-(cyclohexyl(isobutyl)amino)-3-(3-(2-fluoro-4-methylphenyl)ureido)phenoxy)propanoic acid], the pIC50 was above 8.30.

Source of the values: US10689331B2, “IDO inhibitors” (Bristol-Myers Squibb Company, priority 2015, dated 2020).
